# Measured values reported in patent US10981879B2, “Thioether triazolopyridine and triazolopyrimidine inhibitors of myeloperoxidase” (BRISTOL-MYERS SQUIBB COMPANY, priority 2014, dated 2021).
# What was measured:
# [1] = molecular target: T1, myeloperoxidase (MPO) (Homo sapiens (Human), UniProt P05164); test: MPO peroxidation assay (Amplex Red); type: biochemical; conditions: Table 1
# Procedure: MPO peroxidation activity was measured in 100 mM KPi (pH 7.4) by utilizing the non-fluorescent reagent Amplex Red (Invitrogen catalog #A12222) which can be oxidized to the highly fluorescent resorufin. Amplex Red is oxidized by the peroxidase action of MPO to resorufin. Reactions were carried out in 50 μL total volume by adding a 25 μL mixture of 200 pM myeloperoxidase and 40 nM H2O2 (Sigma #349887) to 100 nL inhibitor in 100% DMSO in a 384 well Perkin Elmer Optiplate. Enzyme and compound were preincubated for ten minutes at rt.
# After the ten minute preincubation, 25 μL of an Amplex Red mixture containing 200 μM Amplex Red and 10 mM H2O2 was added to the plate. Kinetic determinations were carried out immediately on a Perkin Elmer Envision (15 minute kinetic read, Ex: 535 nm, Em: 590 nm).
# IC50 values were calculated by determining the slope of the linear portion of the kinetic trace (180-540 secs), and using that calculated slope to determine % inhibition occurring at each concentration of inhibitor using the following equation:
# [formula] where A=minimal Y value (activity level of inhibited sample), B=maximal Y value (activity level of uninhibited sample), C=Log IC50, D=Hill Slope, x=concentration of inhibitor. MPO Chlorination Assay
# [2] = molecular target: T1, myeloperoxidase (MPO); test: MPO chlorination assay (APF); type: biochemical
# How it was run: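 Human MPO (200 pM) with 120 mM NaCl preincubated with inhibitor 10 minutes at rt in 100 mM KPi pH 7.4. Reaction started with APF mixture containing 10 μM H2O2; fluorescein fluorescence (ex 485/em 535 nm) read kinetically 3 minutes. IC50 from slopes of linear kinetic portion, fitted with a four-parameter Hill equation.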
# [3] = MPO chlorination assay (APF), Table 1, read-out: APF IC50
# [4] = MPO chlorination assay, ranges given, read-out: MPO chlorination assay IC50
# T1 sequence (P05164 49-745): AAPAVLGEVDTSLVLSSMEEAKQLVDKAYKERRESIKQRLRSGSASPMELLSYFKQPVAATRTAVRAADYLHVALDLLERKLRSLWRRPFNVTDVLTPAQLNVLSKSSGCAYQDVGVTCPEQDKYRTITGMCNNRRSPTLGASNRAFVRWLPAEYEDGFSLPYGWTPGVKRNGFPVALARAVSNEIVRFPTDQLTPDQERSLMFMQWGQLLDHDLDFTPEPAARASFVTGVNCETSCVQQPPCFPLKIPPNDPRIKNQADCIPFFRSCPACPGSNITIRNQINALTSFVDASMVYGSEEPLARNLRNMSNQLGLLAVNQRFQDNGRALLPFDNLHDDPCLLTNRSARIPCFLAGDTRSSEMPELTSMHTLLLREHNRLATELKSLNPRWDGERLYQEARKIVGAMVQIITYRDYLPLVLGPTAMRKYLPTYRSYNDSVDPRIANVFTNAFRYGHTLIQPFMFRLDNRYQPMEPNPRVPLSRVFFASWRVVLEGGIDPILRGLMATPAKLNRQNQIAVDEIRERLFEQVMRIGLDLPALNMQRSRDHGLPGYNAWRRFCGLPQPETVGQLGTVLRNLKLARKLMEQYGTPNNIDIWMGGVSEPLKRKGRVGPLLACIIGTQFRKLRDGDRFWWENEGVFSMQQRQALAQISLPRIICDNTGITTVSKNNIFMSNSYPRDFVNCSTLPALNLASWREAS
Structure (SMILES),IC50 [1],"IC50 [2, 3]","IC50 [2, 4]"
"Nc1cc(SCc2ccccc2-n2cccn2)c2nn[nH]c2n1 [Example 41, 7-((2-(1H-pyrazol-1-yl)benzyl)thio)-3H-[1,2,3] triazolo[4,5-b]pyridin-5-amine]",20 nM,80 nM,
"Nc1cc(SCc2ccccc2F)c2nn[nH]c2n1 [Example 3, 7-((2-fluorobenzyl)thio)-3H-[1,2,3]triazolo [4,5-b]pyridin-5-amine]",7 nM,10 nM,
"Nc1cc(SCc2cc(C(F)(F)F)ccc2C(F)(F)F)c2nn[nH]c2n1 [Example 39, 7-((2,5-bis(trifluoromethyl)benzyl)thio)-3H-[1,2,3] triazolo[4,5-b]pyridin-5-amine]",10 nM,20 nM,
"CCC(Sc1cc(N)nc2[nH]nnc12)c1ccccc1 (centres unmarked) [Example 45, 7-((1-phenylpropyl)thio)-3H-[1,2,3]triazolo[4,5-b] pyridin-5-amine]",20 nM,80 nM,
Nc1cc(SCc2cn(-c3cnccn3)nc2C(F)F)c2nn[nH]c2n1 [Example 145],30 nM,80 nM,
"Nc1cc(SCc2cc(F)c(-c3ncon3)cc2F)c2nn[nH]c2n1 [Example 28, 7-((2,5-difluoro-4-(1,2,4-oxadiazol-3-yl)benzyl)thio)-3H-[1,2,3]triazolo[4,5-b] pyridin-5-amine]",10 nM,80 nM,
"Nc1cc(SCc2c(F)cccc2F)c2nn[nH]c2n1 [Example 10, 7-((2,6-Difluorobenzyl)thio)-3H-[1,2,3]triazolo[4,5-b]pyridin-5-amine]",,,≤ 60 nM
"Nc1cc(SC(CCCNCc2ccccc2)c2ccccc2)c2nn[nH]c2n1 (centres unmarked) [Example 14, 7-((4-(Benzylamino)-1-phenylbutyl)thio)-3H-[1,2,3]triazolo[4,5-b]pyridin-5-amine]",,,≤ 60 nM
"Nc1cc(SCc2cc(Cl)ccc2S(=O)(=O)Cc2ccccc2)c2nn[nH]c2n1 [Example 61, 7-((2-(benzylsulfonyl)-5-chlorobenzyl)thio)-3H-[1,2,3]triazolo[4,5-b]pyridin-5-amine]",,,60 to 200 nM
"CN(C)Cc1cccc(-n2cc(CSc3cc(N)nc4[nH]nnc34)c(C(F)F)n2)c1 [Example 148, 7-(((3-(difluoromethyl)-1-(3-((dimethylamino)methyl)phenyl)-1H-pyrazol-4-yl)methyl)thio)-3H-[1,2,3]triazolo [4,5-b]pyridin-5-amine]",,,≤ 60 nM
"Nc1cc(SCc2ncccn2)c2nn[nH]c2n1 [Example 57, 7-((pyrimidin-2-ylmethyl)thio)-3H-[1,2,3]triazolo[4,5-b]pyridin-5-amine]",100 nM,500 nM,
"COC(=O)c1ccc(F)c(CSc2cc(N)nc3[nH]nnc23)c1 [Example 52, methyl 3-(((5-amino-3H-[1,2,3]triazolo[4,5-b]pyridin-7-yl)thio)methyl)-4-fluorobenzoate]",,,60 to 200 nM
Nc1cc(SCc2cn(-c3ccncc3)nc2C(F)(F)F)c2nn[nH]c2n1 [Example 137],,,≤ 60 nM
"Nc1cc(SCc2cn(-c3ccccc3)nc2C(F)F)c2nn[nH]c2n1 [Example 138, 7-(((3-(difluoromethyl)-1-phenyl-1H-pyrazol-4-yl)methyl)thio)-3H-[1,2,3]triazolo[4,5-b] pyridin-5-amine]",,,≤ 60 nM
"N#Cc1ccc(CSc2cc(N)nc3[nH]nnc23)c(F)c1 [Example 47, 4-(((5-amino-3H-[1,2,3]triazolo[4,5-b]pyridin-7-yl)thio)methyl)-3-fluorobenzonitrile]",,,≤ 60 nM
"Cn1nc(C(F)(F)F)c(CSc2cc(N)nc3[nH]nnc23)c1Cl [Example 78, 7-(((5-chloro-1-methyl-3-(trifluoromethyl)-1H-pyrazol-4-yl)methyl)thio)-3H-[1,2,3]triazolo[4,5-b] pyridin-5-amine]",,,≤ 60 nM

# More lines, now with the values ahead:
IC50 [1],"IC50 [2, 3]","IC50 [2, 4]",Structure (SMILES)
100 nM,530 nM,,"Nc1cc(SCc2cnn(C3CCCCC3)c2C(F)(F)F)c2nn[nH]c2n1 [Example 116, 7-(((1-cyclohexyl-5-(trifluoromethyl)-1H-pyrazol-4-yl)methyl)thio)-3H-[1,2,3]triazolo[4,5-b] pyridin-5-amine]"
790 nM,570 nM,,"Nc1nc(SCc2ccccc2CN2CCCC2)c2nn[nH]c2n1 [Example 166, 7-((2-(pyrrolidin-1-ylmethyl)benzyl)thio)-3H-[1,2,3]triazolo[4,5-d] pyrimidin-5-amine]"
10 nM,20 nM,,"Nc1cc(SCc2cc(F)ccc2OC(F)(F)F)c2nn[nH]c2n1 [Example 66, 7-((5-fluoro-2-(trifluoromethoxy)benzyl)thio)-3H-[1,2,3]triazolo[4,5-b]pyridin-5-amine]"
460 nM,580 nM,,"Cc1nn(-c2ccc(F)cc2)c(C)c1CSc1cc(N)nc2[nH]nnc12 [Example 72, 7-(((1-(4-fluorophenyl)-3,5-dimethyl-1H-pyrazol-4-yl)methyl)thio)-3H-[1,2,3] triazolo[4,5-b]pyridin-5-amine]"
30 nM,9 nM,,"N#Cc1ccc(C2CC2)c(CSc2cc(N)nc3[nH]nnc23)c1 [Example 88, 3-(((5-amino-3H-[1,2,3]triazolo[4,5-b]pyridin-7-yl)thio)methyl)-4-cyclopropylbenzonitrile]"
140 nM,610 nM,,"Cc1ncn(C)c1CSc1cc(N)nc2[nH]nnc12 [Example 77, 7-(((1,4-dimethyl-1H-imidazol-5-yl)methyl)thio)-3H-[1,2,3]triazolo[4,5-b] pyridin-5-amine]"
50 nM,760 nM,,"CCOC(=O)c1cc(CSc2cc(N)nc3[nH]nnc23)n(C)n1 [Example 70, ethyl 5-(((5-amino-3H-[1,2,3]triazolo[4,5-b]pyridin-7-yl)thio)methyl)-1-methyl-1H-pyrazole-3-carboxylate]"
40 nM,80 nM,,Nc1cc(SCc2cn(-c3cccnn3)nc2C(F)F)c2nn[nH]c2n1 [Example 144]
20 nM,80 nM,,"Nc1cc(SC(CO)c2ccccc2)c2nn[nH]c2n1 (centres unmarked) [Example 126, 2-((5-Amino-3H-[1,2,3]triazolo[4,5-b]pyridin-7-yl)thio)-2-phenylethanol]"
20 nM,10 nM,,"Nc1cc(SCc2cn(-c3ccccc3)nc2C(F)(F)F)c2nn[nH]c2n1 [Example 113, 7-(((1-phenyl-3-(trifluoromethyl)-1H-pyrazol-4-yl)methyl)thio)-3H-[1,2,3]triazolo[4,5-b] pyridin-5-amine]"
10 nM,90 nM,,"CS(=O)(=O)c1ccc(CSc2cc(N)nc3[nH]nnc23)c(Cl)c1 [Example 104, 7-((2-chloro-4-(methylsulfonyl)benzyl)thio)-3H-[1,2,3]triazolo[4,5-b]pyridin-5-amine]"
530 nM,640 nM,,"Nc1cc(SCc2ccccc2CN2CCC(Oc3ccccc3)C2)c2nn[nH]c2n1 (centres unmarked) [Example 98, 7-((2-((3-phenoxypyrrolidin-1-yl)methyl)benzyl)thio)-3H-[1,2,3]triazolo[4,5-b] pyridin-5-amine]"
30 nM,7 nM,,"Cc1nn(-c2ccccc2)c(Cl)c1CSc1cc(N)nc2[nH]nnc12 [Example 79, 7-(((5-chloro-3-methyl-1-phenyl-1H-pyrazol-4-yl)methyl)thio)-3H-[1,2,3] triazolo[4,5-b]pyridin-5-amine]"
220 nM,770 nM,,"CCn1ncc(CSc2nc(N)nc3[nH]nnc23)c1C(F)(F)F [Example 164, 7-(((1-ethyl-5-(trifluoromethyl)-1H-pyrazol-4-yl)methyl)thio)-3H-[1,2,3]triazolo[4,5-d] pyrimidin-5-amine]"
,,200 to 1000 nM,Nc1cc(SCc2cn(-c3cnc(C(=O)N4CCC4)cn3)nc2C(F)F)c2nn[nH]c2n1 [Example 146]
,,60 to 200 nM,"Nc1cc(SCc2ccccc2CN2CCCCC2)c2nn[nH]c2n1 [Example 97, 7-((2-(piperidin-1-ylmethyl)benzyl)thio)-3H-[1,2,3] triazolo[4,5-b]pyridin-5-amine]"
,,60 to 200 nM,"Cc1nn(Cc2ccccc2)c(Cl)c1CSc1cc(N)nc2[nH]nnc12 [Example 76, 7-(((1-benzyl-5-chloro-3-methyl-1H-pyrazol-4-yl)methyl)thio)-3H-[1,2,3] triazolo[4,5-b]pyridin-5-amine]"
,,60 to 200 nM,"Cc1nn(-c2ccccc2)nc1CSc1cc(N)nc2[nH]nnc12 [Example 65, 7-(((5-methyl-2-phenyl-2H-1,2,3-triazol-4-yl)methyl)thio)-3H-[1,2,3]triazolo[4,5-b]pyridin-5-amine]"
,,60 to 200 nM,"Cn1nc(C2CC2)cc1CSc1cc(N)nc2[nH]nnc12 [Example 100, 7-(((3-cyclopropyl-1-methyl-1H-pyrazol-5-yl)methyl)thio)-3H-[1,2,3]triazolo[4,5-b]pyridin-5-amine]"
170 nM,10 nM,,Nc1cc(SCc2cn(-c3ccc(N4CCCC4)nc3)nc2C(F)(F)F)c2nn[nH]c2n1 [Example 139]
,,60 to 200 nM,"N#Cc1cccc(C2CC2)c1CSc1cc(N)nc2[nH]nnc12 [Example 89, 2-(((5-amino-3H-[1,2,3]triazolo[4,5-b]pyridin-7-yl)thio)methyl)-3-cyclopropylbenzonitrile]"
